The subject of test [1] is A549 (human lung carcinoma cell line). Description: Glo assay of A549 cells (Table 3; ProteasomeGlo plating scheme). Type of test: cell-based. The settings on record: Homo sapiens. The gist of the method:
(§1)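 Compound treatment lasts 105 minutes at 37° C. under 5% CO2. Suc-LLVY-Glo substrate premixed with detection reagent (60 min at room temperature) is then added directly to the cells, and luminescence after 10-15 min in the dark gives the IC50 in nM.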

In test [2] the test system is Karpas cells. Put plainly: Glo assay of Karpas cells (Table 3; ProteasomeGlo plating scheme). Format: cell-based. The conditions noted are these: read-out: Pglo Karpas. Summed up: as §1
Test [3] deals with B-cells isolated from PBMC's. Put plainly: Chymotrypsin-like ProteasomeGlo assay in B-cells isolated from PBMCs. Type of test: cell-based, human. The settings on record: Homo sapiens; B-cells isolated from PBMC's; read-out: Pglo B-Cell. The gist of the method: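 Human B-cells were negatively isolated from buffy-coat PBMCs by density gradient, RBC lysis and Miltenyi magnetic separation. Cells were plated and compounds added by acoustic transfer after 1:100 dilution, with DMSO controls and medium-only wells. Chymotrypsin-like proteasome activity was read by luminescent ProteasomeGlo to derive IC50.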

Setting [4] is: A549 cells, read-out: PGLo A549.

Where two headings read alike, the source gives them in different places.

Consider `Cc1ccc2cc1CNC(=O)[C@H](CCc1ccccc1)NC(=O)[C@@H](NC(=O)OCC1(C)COC1)CC(=O)N1CCCC(CCO2)C1` (stereo partly drawn) [Compound 293, (3-methyloxetan-3-yl)methyl ((9S,12S)-5^4-methyl-8,11,14-trioxo-9-phenethyl-4-oxa-7,10-diaza-1(3,1)-piperidina-5(1,3)-benzenacyclotetradecaphane-12-yl)carbamate], for which the IC50 in test [1] (A549, read-out: PGLo A549 [nM]) was less than 100 nM.
As for `CC(=O)N[C@H]1CC(=O)N2CCCC(CCOc3ccc(C)c(c3)CNC(=O)C(c3cnn(Cc4ccccc4)c3)NC1=O)C2` (stereo partly drawn) [Compound 565, N-((12S)-9-(1-benzyl-1H-pyrazol-4-yl)-5^4-methyl-8,11,14-trioxo-4-oxa-7,10-diaza-1(3,1)-piperidina-5(1,3)-benzenacyclotetradecaphane-12-yl)acetamide], the IC50 in test [1] (setting [4]) was less than 100 nM.
Consider `Cc1ccc2cc1CNC(=O)[C@H](CCc1ccccc1)NC(=O)[C@@H](NC(=O)OCc1ccccc1)CC(=O)N1CCC[C@H](CCO2)C1` [Compound 292, benzyl ((13R,9S,12S)-5^4-methyl-8,11,14-trioxo-9-phenethyl-4-oxa-7,10-diaza-1(3,1)-piperidina-5(1,3)-benzenacyclotetradecaphane-12-yl)carbamate], for which the IC50 in test [1] (setting [4]) was less than 100 nM.
Regarding `CCC(C(=O)N[C@H]1CC(=O)N2CCCC(CCOc3ccc(C)c(c3)CNC(=O)[C@H](CCc3ccccc3)NC1=O)C2)c1ccc(OC)c(OC)c1` (stereo partly drawn) [Compound 64, 2-(3,4-dimethoxyphenyl)-N-((9S,12S)-5^4-methyl-8,11,14-trioxo-9-phenethyl-4-oxa-7,10-diaza-1(3,1)-piperidina-5(1,3)-benzenacyclotetradecaphane-12-yl)butanamide], the IC50 in test [2], in test [1] (setting [4]) and in test [3] was less than 100 nM throughout.
`Cc1ccc2cc1CNC(=O)[C@H](CCc1ccccc1)NC(=O)[C@H](NC(=O)OCc1ccccc1)CC(=O)N1CCC[C@H](CCO2)C1` [Compound 291, benzyl ((13R,9S,12R)-5^4-methyl-8,11,14-trioxo-9-phenethyl-4-oxa-7,10-diaza-1(3,1)-piperidina-5(1,3)-benzenacyclotetradecaphane-12-yl)carbamate]: in test [1] (setting [4]), the IC50 lay within 1000 to 5000 nM.

Source of the values: patent US20240415819A1, “MACROCYCLIC COMPOUNDS AS PROTEASOME SUBUNIT BETA TYPE-5 INHIBITORS” (Lead Discovery Center GmbH, priority 2021, published 2024).
